Read-outs that look alike come from different tables or passages of the source.
Experiments:
[1] = Plasma pharmacokinetics of Compound 1 in patients with advanced solid tumor malignancies and TGCT; format: in vivo, human; conditions: for AUC(0-t) / Tmax / Cmax: human, plasma, oral; for Tmax: Median (Min, Max)
Experimental: PK analysis was conducted on all 38 patients. Serial blood samples were collected for PK and took place on either Day −7, Cycle 1, Day 1 (C1D1) and C2D1 at pre-dose, 0.5, 1, 2, 4, 6, 8, 10-12, and 24 hr time points or Day −7, C1D1, C1D8, and C2D1 at pre-dose, 1, 2, 4, 6, and 8 hr time points, or C1D1, C1D8, and C2D1 at pre-dose, 1, 2, 4, 6, and 8 hr time points. High fat meal was given prior to dosing of Compound 1 on Day −7. PD effects were measured by two methodologies: 1) depletion of CSF1R-expressing monocytes in peripheral blood (Cohorts 1-7) from C1D1, C1D15 and C2D1; and 2) increase of plasma levels of CSF1 and IL-34, the ligands for CSF1R (Cohorts 1-7) on C1D1, C1D15, and C2D1. For the CD16^+ monocyte assay, whole blood collected in an EDTA vacutainer was aliquoted into tubes and incubated with fluorescently-labeled antibodies (CD14-Alexa488 (BD Pharmingen); CD16-PE-Cy7 (BD Pharmingen); and TIE2-APC (R&D Systems). After incubation, red blood cells were lysed, and the remaining cells were washed several times before being analyzed on a flow cytometer. For the plasma CSF1 assay or IL-34, whole blood collected in an EDTA vacutainer was centrifuged, and the plasma was collected and frozen. Plasma levels of CSF1 or IL-34 were measured using a commercial ELISA kit (R&D Systems).
Cohort 1 had daily dosing.

[2] = in vivo; conditions: Sprague-Dawley, rat

SMILES: Cc1nc(-c2cnc(NC(C)C)n(C)c2=O)ccc1Oc1ccnc(-c2cnn(C)c2)c1 [Compound 1, 2-(isopropylamino)-3-methyl-5-(6-methyl-5-((2-(1-methyl-1H-pyrazol-4-yl)pyridin-4-yl)oxy)pyridin-2-yl)pyrimidin-4(3H)-one]
- AUC(0-t) ([1]; 20 mg, Cohort 3 20 mg Weekly after 5-day QD loading dose, C2D1, GM (CV %), read-out: AUC0-8): 3380 ng·h/mL
- Tmax ([1]; 20 mg, Cohort 3 20 mg Weekly after 5-day QD loading dose, C2D1): 1 h
- Cmax ([1]; 20 mg, Cohort 3 20 mg Weekly after 5-day QD loading dose, Day-7, GM (CV %)): 242 ng/mL
- AUC(0-t) ([1]; 20 mg, Cohort 3 20 mg Weekly after 5-day QD loading dose, Day-7, GM (CV %), read-out: AUC0-8): 1320 ng·h/mL
- Tmax ([1]; 20 mg, Cohort 3 20 mg Weekly after 5-day QD loading dose, Day-7): 4 h
- Cmax ([1]; 20 mg, Cohort 4 20 mg QD x 5 d, BIW maintenance dose, C1D1, Geo Mean): 268 ng/mL
- AUC(0-t) ([1]; 20 mg, Cohort 4 20 mg QD x 5 d, BIW maintenance dose, C1D1, Geo Mean, read-out: AUC0-8 h): 1610 ng·h/mL
- Cmax ([1]; 20 mg, Cohort 4 20 mg QD x 5 d, BIW maintenance dose, C1D8, Geo Mean): 685 ng/mL
- AUC(0-t) ([1]; 20 mg, Cohort 4 20 mg QD x 5 d, BIW maintenance dose, C1D8, Geo Mean, read-out: AUC0-8 h): 4660 ng·h/mL
- Cmax ([1]; 20 mg, Cohort 4 20 mg QD x 5 d, BIW maintenance dose, C2D1, Geo Mean): 642 ng/mL
- AUC(0-t) ([1]; 20 mg, Cohort 4 20 mg QD x 5 d, BIW maintenance dose, C2D1, Geo Mean, read-out: AUC0-8 h): 4300 ng·h/mL
- Cmax ([1]; 20 mg, Cohort 4 20 mg QD x 5 d, BIW maintenance dose, Day -7, Geo Mean): 183 ng/mL
- AUC(0-t) ([1]; 20 mg, Cohort 4 20 mg QD x 5 d, BIW maintenance dose, Day -7, Geo Mean, read-out: AUC0-8 h): 1090 ng·h/mL
- Cmax ([1]; 20 mg, Cohort 4 20 mg Twice Weekly after 5-day QD loading dose, C1D1, GM (CV %)): 268 ng/mL
- AUC(0-t) ([1]; 20 mg, Cohort 4 20 mg Twice Weekly after 5-day QD loading dose, C1D1, GM (CV %), read-out: AUC0-8): 1610 ng·h/mL
- Tmax ([1]; 20 mg, Cohort 4 20 mg Twice Weekly after 5-day QD loading dose, C1D1): 0.75 h
- Cmax ([1]; 20 mg, Cohort 4 20 mg Twice Weekly after 5-day QD loading dose, C1D8, GM (CV %)): 685 ng/mL
- AUC(0-t) ([1]; 20 mg, Cohort 4 20 mg Twice Weekly after 5-day QD loading dose, C1D8, GM (CV %), read-out: AUC0-8): 4660 ng·h/mL
- Tmax ([1]; 20 mg, Cohort 4 20 mg Twice Weekly after 5-day QD loading dose, C1D8): 2.25 h
- Cmax ([1]; 20 mg, Cohort 4 20 mg Twice Weekly after 5-day QD loading dose, C2D1, GM (CV %)): 642 ng/mL
- AUC(0-t) ([1]; 20 mg, Cohort 4 20 mg Twice Weekly after 5-day QD loading dose, C2D1, GM (CV %), read-out: AUC0-8): 4300 ng·h/mL
- Tmax ([1]; 20 mg, Cohort 4 20 mg Twice Weekly after 5-day QD loading dose, C2D1): 0.5 h
- Cmax ([1]; 20 mg, Cohort 4 20 mg Twice Weekly after 5-day QD loading dose, Day-7, GM (CV %)): 183 ng/mL
- AUC(0-t) ([1]; 20 mg, Cohort 4 20 mg Twice Weekly after 5-day QD loading dose, Day-7, GM (CV %), read-out: AUC0-8): 1090 ng·h/mL
- Tmax ([1]; 20 mg, Cohort 4 20 mg Twice Weekly after 5-day QD loading dose, Day-7): 4 h
- AUC(0-t) ([1]; 20 mg, Cohort 7 20 mg QD after 3-day 50 mg QD loading dose, C2D1, GM (CV %), read-out: AUC0-8): 7980 ng·h/mL
- Cmax ([1]; 30 mg, Cohort 5 30 mg QD x 5 d, BIW maintenance dose, C1D1, Geo Mean): 600 ng/mL
- AUC(0-t) ([1]; 30 mg, Cohort 5 30 mg QD x 5 d, BIW maintenance dose, C1D1, Geo Mean, read-out: AUC0-8 h): 3390 ng·h/mL
- Cmax ([1]; 30 mg, Cohort 5 30 mg QD x 5 d, BIW maintenance dose, C1D8, Geo Mean): 1400 ng/mL
- AUC(0-t) ([1]; 30 mg, Cohort 5 30 mg QD x 5 d, BIW maintenance dose, C1D8, Geo Mean, read-out: AUC0-8 h): 8800 ng·h/mL
- Cmax ([1]; 30 mg, Cohort 5 30 mg QD x 5 d, BIW maintenance dose, C2D1, Geo Mean): 953 ng/mL
- AUC(0-t) ([1]; 30 mg, Cohort 5 30 mg QD x 5 d, BIW maintenance dose, C2D1, Geo Mean, read-out: AUC0-8 h): 5420 ng·h/mL
- Cmax ([1]; 30 mg, Cohort 5 30 mg QD x 5 d, BIW maintenance dose, Day -7, Geo Mean): 278 ng/mL
- AUC(0-t) ([1]; 30 mg, Cohort 5 30 mg QD x 5 d, BIW maintenance dose, Day -7, Geo Mean, read-out: AUC0-8 h): 1390 ng·h/mL
- Cmax ([1]; 30 mg, Cohort 5 30 mg Twice Weekly after 5-day QD loading dose, C1D1, GM (CV %)): 422 ng/mL
- AUC(0-t) ([1]; 30 mg, Cohort 5 30 mg Twice Weekly after 5-day QD loading dose, C1D1, GM (CV %), read-out: AUC0-8): 2250 ng·h/mL
- Tmax ([1]; 30 mg, Cohort 5 30 mg Twice Weekly after 5-day QD loading dose, C1D1): 1 h
- Cmax ([1]; 30 mg, Cohort 5 30 mg Twice Weekly after 5-day QD loading dose, C1D8, GM (CV %)): 1160 ng/mL
- AUC(0-t) ([1]; 30 mg, Cohort 5 30 mg Twice Weekly after 5-day QD loading dose, C1D8, GM (CV %), read-out: AUC0-8): 7160 ng·h/mL
- Tmax ([1]; 30 mg, Cohort 5 30 mg Twice Weekly after 5-day QD loading dose, C1D8): 1 h
- Cmax ([1]; 30 mg, Cohort 5 30 mg Twice Weekly after 5-day QD loading dose, C2D1, GM (CV %)): 822 ng/mL
- AUC(0-t) ([1]; 30 mg, Cohort 5 30 mg Twice Weekly after 5-day QD loading dose, C2D1, GM (CV %), read-out: AUC0-8): 5420 ng·h/mL
- Tmax ([1]; 30 mg, Cohort 5 30 mg Twice Weekly after 5-day QD loading dose, C2D1): 1.5 h
- Cmax ([1]; 30 mg, Cohort 5 30 mg Twice Weekly after 5-day QD loading dose, Day-7, GM (CV %)): 278 ng/mL
- AUC(0-t) ([1]; 30 mg, Cohort 5 30 mg Twice Weekly after 5-day QD loading dose, Day-7, GM (CV %), read-out: AUC0-8): 1390 ng·h/mL
- Cmax ([1]; 30 mg, Cohort 6 30 mg QD x 5 d, BIW maintenance dose (so in the source), C2D1, Geo Mean): 1150 ng/mL
- AUC(0-t) ([1]; 30 mg, Cohort 6 30 mg QD x 5 d, BIW maintenance dose (so in the source), C2D1, Geo Mean, read-out: AUC0-8 h): 7290 ng·h/mL
- Cmax ([1]; 40 mg, Cohort 6 40 mg Twice Weekly after 5-day QD loading dose, C1D1, GM (CV %)): 830 ng/mL
- AUC(0-t) ([1]; 40 mg, Cohort 6 40 mg Twice Weekly after 5-day QD loading dose, C1D1, GM (CV %), read-out: AUC0-8): 4790 ng·h/mL
- Cmax ([1]; 40 mg, Cohort 6 40 mg Twice Weekly after 5-day QD loading dose, C1D8, GM (CV %)): 1860 ng/mL
- AUC(0-t) ([1]; 40 mg, Cohort 6 40 mg Twice Weekly after 5-day QD loading dose, C1D8, GM (CV %), read-out: AUC0-8): 12000 ng·h/mL
- Tmax ([1]; 40 mg, Cohort 6 40 mg Twice Weekly after 5-day QD loading dose, C1D8): 1 h
- Cmax ([1]; 40 mg, Cohort 6 40 mg Twice Weekly after 5-day QD loading dose, C2D1, GM (CV %)): 1150 ng/mL
- AUC(0-t) ([1]; 40 mg, Cohort 6 40 mg Twice Weekly after 5-day QD loading dose, C2D1, GM (CV %), read-out: AUC0-8): 7290 ng·h/mL
- Tmax ([1]; 40 mg, Cohort 6 40 mg Twice Weekly after 5-day QD loading dose, C2D1): 1 h
- Cmax ([1]; 40 mg, Cohort 6 40 mg Twice Weekly after 5-day QD loading dose, Day-7, GM (CV %)): 454 ng/mL
- AUC(0-t) ([1]; 40 mg, Cohort 6 40 mg Twice Weekly after 5-day QD loading dose, Day-7, GM (CV %), read-out: AUC0-8): 2250 ng·h/mL
- Tmax ([1]; 40 mg, Cohort 6 40 mg Twice Weekly after 5-day QD loading dose, Day-7): 4 h
- Cmax ([1]; 50 mg, Cohort 7 50 mg QD x 3 d, QD maintenance dose, C2D1, Geo Mean): 1250 ng/mL
- AUC(0-t) ([1]; 50 mg, Cohort 7 50 mg QD x 3 d, QD maintenance dose, C2D1, Geo Mean, read-out: AUC0-8 h): 7980 ng·h/mL
- Cmax ([1]; Cohort 7 20 mg QD after 3-day 50 mg QD loading dose, C1D1, GM (CV %)): 440 ng/mL
- AUC(0-t) ([1]; Cohort 7 20 mg QD after 3-day 50 mg QD loading dose, C1D1, GM (CV %), read-out: AUC0-8): 2310 ng·h/mL
- Cmax ([1]; Cohort 7 20 mg QD after 3-day 50 mg QD loading dose, C1D8, GM (CV %)): 1010 ng/mL
- AUC(0-t) ([1]; Cohort 7 20 mg QD after 3-day 50 mg QD loading dose, C1D8, GM (CV %), read-out: AUC0-8): 6740 ng·h/mL
- Cmax ([1]; Cohort 7 20 mg QD after 3-day 50 mg QD loading dose, C2D1, GM (CV %)): 840 ng/mL
- Cmax ([1]; Cohort 7 20 mg QD after 3-day 50 mg QD loading dose, Day-7, GM (CV %)): 272 ng/mL
- AUC(0-t) ([1]; Cohort 7 20 mg QD after 3-day 50 mg QD loading dose, Day-7, GM (CV %), read-out: AUC0-8): 800 ng·h/mL
- Tmax ([1]; Cohort 7 20 mg QD after 3-day 50 mg QD loading dose, Day-7): 5 h
- half-life ([1]; patients, dose cohorts 1 to 7, no accurate estimation): long half-life
- NOAEL at 4 weeks [2]: 5 mg/kg/day

Reference: US11679110B2, “Methods of treating disorders using CSF1R inhibitors” (Deciphera Pharmaceuticals, LLC, priority 2018, dated 2023)
